Source: patent US20240190838A1, “LZK-TARGETING DEGRADERS AND METHODS OF USE” (The U.S.A., as represented by the Secretary, Department of …, priority 2020, published 2024)
In brackets after ≈: the same amount, converted by molar mass. Read-outs that look alike come from different tables or passages of the source.

Assays:
[1] = Parallel artificial membrane permeability assay (PAMPA); assay type: in vitro ADME; details: for Ratio of mean permeability (×10^4 cm/s) related to low permeability control (atenolol): Table 7
[2] = Rat liver microsomal (RLM) stability assay; assay type: in vitro ADME; details: rat liver microsomes; read-out: RLM Stability (t1/2)
Kinetic solubility assay = assay type: physicochemical; details: kinetic from dmso stock
LZK [3] = molecular target: T1, LZK (Homo sapiens, UniProt O43283); assay: LZK degradation (doxycycline-induced LZK expression, immunoblot) in CAL33 cells; assay type: cell-based; parameters: V5 (named only in the vector); expressed in transfected cells; host or cells: CAL33 HNSCC cells, lentiviral T-REx system, induced with doxycycline; details: for LZK degradation / dox-induced LZK expression: CAL33, doxycycline 48 hours, LZK PROTAC 24 hours, 0-10 μM; for dox-induced LZK expression at high concentrations: 24 hours
T1 sequence (O43283 1-966): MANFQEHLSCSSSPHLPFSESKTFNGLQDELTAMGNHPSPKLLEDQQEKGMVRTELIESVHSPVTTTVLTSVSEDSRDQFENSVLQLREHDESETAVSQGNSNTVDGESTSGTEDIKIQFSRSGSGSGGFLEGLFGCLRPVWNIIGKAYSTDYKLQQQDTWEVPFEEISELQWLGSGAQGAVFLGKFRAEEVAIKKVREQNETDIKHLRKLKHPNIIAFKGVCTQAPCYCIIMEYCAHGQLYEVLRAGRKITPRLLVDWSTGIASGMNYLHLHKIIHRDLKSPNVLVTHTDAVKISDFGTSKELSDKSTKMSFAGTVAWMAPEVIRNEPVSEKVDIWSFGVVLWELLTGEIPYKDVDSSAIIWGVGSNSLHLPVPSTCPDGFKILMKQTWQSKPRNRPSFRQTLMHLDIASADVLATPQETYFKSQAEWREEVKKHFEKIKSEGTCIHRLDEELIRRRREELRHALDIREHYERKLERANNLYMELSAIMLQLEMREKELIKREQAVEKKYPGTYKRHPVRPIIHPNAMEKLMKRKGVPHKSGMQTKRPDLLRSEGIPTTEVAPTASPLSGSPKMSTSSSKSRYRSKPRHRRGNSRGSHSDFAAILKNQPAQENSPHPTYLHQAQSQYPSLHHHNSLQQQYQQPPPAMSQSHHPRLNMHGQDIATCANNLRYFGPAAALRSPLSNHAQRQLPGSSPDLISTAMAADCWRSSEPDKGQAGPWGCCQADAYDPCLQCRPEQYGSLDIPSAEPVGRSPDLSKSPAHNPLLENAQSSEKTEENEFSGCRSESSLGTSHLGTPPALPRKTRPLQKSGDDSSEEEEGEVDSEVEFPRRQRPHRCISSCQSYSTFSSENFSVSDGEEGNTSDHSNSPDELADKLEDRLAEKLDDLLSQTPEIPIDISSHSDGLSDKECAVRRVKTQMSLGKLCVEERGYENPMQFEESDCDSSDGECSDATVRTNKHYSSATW
From the text: (§1) The ViraPower HiPerform T-REx Gateway Expression System (Invitrogen) was used to generate cells with tetracycline-inducible expression of LZK. In brief, wild-type (WT) or drug-resistant mutant (Q240S) LZK (cloned into pLenti6.3/TO/V5-DEST vector) and pLenti3.3/TR (for tetracycline repressor expression) were transfected into 293FT cells using Lipofectamine 2000 to generate lentiviral stock. Cell lines were generated by antibiotic selection (blasticidin [Gibco] and geneticin [Gibco]). Doxycycline (Sigma-Aldrich) was used at 1 μg/mL to induce LZK expression.
(§2) Generally, cells were plated in six-well or 35-mm plates for 24 hours, after which doxycycline was added or treatment with specific inhibitor was administered using […] for 48 hours. After appropriate treatment time, cells were washed with ice-cold phosphate-buffered saline without Ca and Mg (Quality Biological) and then lysed on ice with RIPA buffer (50 mM NaCl, 1.0% o IGEPAL® CA-630, 0.5% o sodium deoxycholate, 0.10% SDS, 50 mM Tris, pH 8.0) (Sigma-Aldrich) supplemented with protease inhibitor tablet (Sigma-Aldrich) and phosphatase inhibitor cocktails 2 and 3 (Sigma-Aldrich) followed by centrifugation at 15,000 rpm for 10 minutes at 4° C. Protein concentrations were determined from the cell lysate by using 660 nm Protein Assay Reagent (Pierce). Cell extracts were denatured, subjected to SDS-PAGE, transferred to PVDF membranes (Bio-Rad) and blocked for 2 hours using 5 bovine serum albumin (BSA) in phosphate-buffered saline and 0.10 Tween® 20 (PBS-T). The membranes were incubated with the specific antibodies overnight in […] at 4° C. followed by a 1 hour incubation with the appropriate horseradish peroxidase-conjugated secondary antibodies and signal was detected by chemiluminescence (Thermo Fisher).

LZK [4] = molecular target: T1, LZK; assay: LZK inhibition in cells monitored by downstream JNK phosphorylation (dox-induced LZK); assay type: cell-based; parameters: V5 (named only in the vector); expressed in transfected cells; host or cells: CAL33 HNSCC cells, lentiviral T-REx system, induced with doxycycline
From the text: as §1, §2
A PathScan® Phospho-SAPK/JNK (Thr183/Tyr185) Sandwich ELISA Assay (Cell Signaling Technology) was used for ELISA assays following the manufacturer's protocol. In general, 500,000 cells were plated and treated with doxycycline the following day where appropriate and incubated at 37° C. for 48 hours. Cells were treated with the drug compound or control in 5% FBS media for 1 hour. After appropriate treatment time, cells were lysed on ice with 1x Cell Lysis Buffer (Cell Signaling Technology) supplemented with phosphatase and protease inhibitors (Sigma). Each diluted cell lysate was added to Phospho-SAPK/JNK (Thr183/Tyr185)Rabbit mAb Coated microwells in triplicate and incubated overnight at 4° C. Samples were treated with the following antibodies and incubated at 37° C. for 1 hour and 30 minutes, respectively: Detection Antibody and HRP-Linked secondary antibody. Samples were washed between treatments using 1× Wash Buffer according to the manufacturer's protocol. TMB substrate was added to each well and incubated at 37° C. for 10 minutes. Following this, STOPsolution was added to each well and absorbance was measured at 450 nm using iMark™ Microplate Absorbance Reader (Bio-Rad). Graphs display relative phospho-JNK levels.

SMILES | Ratio of mean permeability (×10^4 cm/s) related to low permeability control (atenolol) [1] | other results
Cc1ncsc1-c1ccc([C@H](C)NC(=O)[C@@H]2C[C@@H](O)CN2C(=O)[C@@H](NC(=O)CCC(=O)N2CCC(c3cc(Nc4cc(C#N)ccn4)nc(N4CCC(F)(F)C4)c3)CC2)C(C)(C)C)cc1 [Compound 14] | −0.51 | –
Cc1ncsc1-c1ccc([C@H](C)NC(=O)[C@@H]2C[C@@H](O)CN2C(=O)[C@@H](NC(=O)c2cc(C(=O)N3CCC(c4cc(Nc5cc(C#N)ccn5)nc(N5CCC(F)(F)C5)c4)CC3)ncn2)C(C)(C)C)cc1 [Compound 20] | −0.01 | –
Cc1ncsc1-c1ccc([C@H](C)NC(=O)[C@@H]2C[C@@H](O)CN2C(=O)[C@@H](NC(=O)c2cncc(C(=O)N3CCC(c4cc(Nc5cc(C#N)ccn5)nc(N5CCC(F)(F)C5)c4)CC3)c2)C(C)(C)C)cc1 [Compound 7] | – | half-life [2]: > 30 min; solubility (Kinetic solubility assay): 26 µg/mL (≈ 27.1 µM); Papp ([1]; pH 7.4): < 1 ×10⁻⁶ cm/s
Cc1ncsc1-c1ccc([C@H](C)NC(=O)[C@@H]2C[C@@H](O)CN2C(=O)[C@@H](NC(=O)[C@H]2CC[C@@H]2C(=O)N2CCC(c3cc(Nc4cc(C#N)ccn4)nc(N4CCC(F)(F)C4)c3)CC2)C(C)(C)C)cc1 (single isomer, unassigned) [Compound 25] | 0.43 | –
Cc1ncsc1-c1ccc([C@H](C)NC(=O)[C@@H]2C[C@@H](O)CN2C(=O)[C@@H](NC(=O)[C@H]2CC[C@H]2C(=O)N2CCC(c3cc(Nc4cc(C#N)ccn4)nc(N4CCC(F)(F)C4)c3)CC2)C(C)(C)C)cc1 (single isomer, unassigned) [Compound 26] | 1.47 | –
Cc1ncsc1-c1ccc([C@H](C)NC(=O)[C@@H]2C[C@@H](O)CN2C(=O)[C@@H](NC(=O)[C@H](CCC(=O)N2CCC(c3cc(Nc4cc(C#N)ccn4)nc(N4CCC(F)(F)C4)c3)CC2)NC(=O)C(N)CCCNC(=N)N)C(C)(C)C)cc1 (stereo partly shown) [Compound 29] | 6.74 | –
O=C(CCCCCCC(=O)N1CCC(c2cc(Nc3cc(C(F)(F)F)ccn3)nc(N3CCC(F)(F)C3)c2)CC1)NCCCCNC(=O)CNc1cccc2c1C(=O)N(C1CCC(=O)NC1=O)C2=O (stereo not shown) [Compound 5] | – | LZK degradation / dox-induced LZK expression (LZK [3]): ineffective at degrading LZK; dox-induced LZK expression at high concentrations (LZK [3]): slightly decreased dox-induced LZK expression; JNK signaling inhibition by targeted degraders (LZK [4]; CAL33 cells induced with doxycycline, 0-10 μM): inhibited LZK
FC1(F)CCN(c2cc(C3CCNCC3)cc(Nc3cc(C(F)(F)F)ccn3)n2)C1 [LZK inhibitor 1] | – | LZK inhibition in cells, measured by inhibition of downstream JNK pathway activation (LZK [4]; dox-inducible LZK in CAL33 cells): poor LZK inhibitor in cells
Cc1ncsc1-c1ccc([C@H](C)NC(=O)[C@@H]2C[C@@H](O)CN2C(=O)[C@@H](NC(=O)[C@H]2C[C@H](C(=O)N3CCC(c4cc(Nc5cc(C#N)ccn5)nc(N5CCC(F)(F)C5)c4)CC3)C2)C(C)(C)C)cc1 [Compound 24] | 6.74 | –
Cc1ncsc1-c1ccc([C@H](C)NC(=O)[C@@H]2C[C@@H](O)CN2C(=O)[C@@H](NC(=O)CCCCC(=O)N2CCC(c3cc(Nc4cc(C#N)ccn4)nc(N4CCC(F)(F)C4)c3)CC2)C(C)(C)C)cc1 [Compound 12] | 0.61 | –
C[C@@H](C(=O)N[C@H](C(=O)N1C[C@@H](NC(=O)CCCCCCC(=O)N2CCC(c3cc(Nc4cc(C#N)ccn4)nc(N4CCC(F)(F)C4)c3)CC2)C[C@H]1C(=O)N[C@@H]1CCCc2ccccc21)C1CCCCC1)N(C)C(=O)OC(C)(C)C [Compound 30] | 0.05 | LZK degradation / dox-induced LZK expression (LZK [3]): did not degrade LZK; Papp ([1]; Table 7, read-out: Mean permeability): 0.0001 ×10⁻⁶ cm/s
Cc1ncsc1-c1ccc([C@H](C)NC(=O)[C@@H]2C[C@@H](O)CN2C(=O)[C@@H](NCc2cccc(CN3CCC(c4cc(Nc5cc(C#N)ccn5)nc(N5CCC(F)(F)C5)c4)CC3)n2)C(C)(C)C)cc1 [Compound 9] | −0.46 | –
Cc1ncsc1-c1ccc([C@H](C)NC(=O)[C@@H]2C[C@@H](O)CN2C(=O)[C@@H](NC(=O)CCCCCCC(=O)N2CCC(c3cc(Nc4cc(C(F)(F)F)ccn4)nc(N4CCC(F)(F)C4)c3)CC2)C(C)(C)C)cc1 [Compound 4] | – | LZK degradation / dox-induced LZK expression (LZK [3]): ineffective at degrading LZK; dox-induced LZK expression at high concentrations (LZK [3]): slightly decreased dox-induced LZK expression

Now from value to compound, other results behind:

Ratio of mean permeability (×10^4 cm/s) related to low permeability control (atenolol) [1] | SMILES | other results
1.31 | Cc1ncsc1-c1ccc([C@H](C)NC(=O)[C@@H]2C[C@@H](O)CN2C(=O)[C@@H](NCc2ccc(C(=O)N3CCC(c4cc(Nc5cc(C#N)ccn5)nc(N5CCC(F)(F)C5)c4)CC3)cc2)C(C)(C)C)cc1 [Compound 13] | –
−0.14 | Cc1ncsc1-c1ccc([C@H](C)NC(=O)[C@@H]2C[C@@H](O)CN2C(=O)[C@@H](NC(=O)c2ccc(C(=O)N3CCC(c4cc(Nc5cc(C#N)ccn5)nc(N5CCC(F)(F)C5)c4)CC3)cc2)C(C)(C)C)cc1 [Compound 15] | –
0.01 | Cc1ncsc1-c1ccc([C@H](C)NC(=O)[C@@H]2C[C@@H](O)CN2C(=O)[C@@H](NC(=O)N2CCC(c3cc(Nc4cc(C#N)ccn4)nc(N4CCC(F)(F)C4)c3)CC2)C(C)(C)C)cc1 [Compound 27] | –
−0.11 | Cc1ncsc1-c1ccc([C@H](C)NC(=O)[C@@H]2C[C@@H](O)CN2C(=O)[C@@H](NC(=O)c2ccc(C(=O)N3CCC(c4cc(Nc5cc(C#N)ccn5)nc(N5CCC(F)(F)C5)c4)CC3)nn2)C(C)(C)C)cc1 [Compound 21] | –
−1.86 | Cc1ncsc1-c1ccc([C@H](C)NC(=O)[C@@H]2C[C@@H](O)CN2C(=O)[C@@H](NCC(=O)N2CCC(c3cc(Nc4cc(C#N)ccn4)nc(N4CCC(F)(F)C4)c3)CC2)C(C)(C)C)cc1 [Compound 28] | –
